Reference: US10829718B2, “Detergent composition comprising a carbinol functional trisiloxane” (Dow Silicones Corporation, priority 2016, dated 2020)

Assay type: physicochemical
Source text: The directive essentially states that if a material is classified as a surfactant in must pass certain biodegradation protocols. A surfactant was generally defined as a material capable of: 1) reducing the surface tension of water to ≤45 dynes/cm (or ≤45 mN/m) at a concentration of 0.5 wt % of the material in water; 2) forming spreading or adsorption monolayers at an air/water interface; 3) forming emulsions, microemulsions and/or micelles; and 4) adsorption at a water/solid interface. Surface tension of an aqueous solution, fluid, or mixture can readily be determined by various methods understood in the art. Generally, for stable solutions or mixtures, an equilibrium method such as the Wilhelmy plate method or Du Noüy ring method can be utilized. Alternately, for more dynamic systems, a pendant drop method can be utilized. This technique results in a fresh surface for each measurement. This method is also useful to reduce the potential for insoluble hydrophobic impurities or oils which could impact the surface tension measurement resulting in artificially low surface tension values. An example of such a surfactant assessment/classification is illustrated in the flow diagram of FIG. 3. Referring to the protocol illustrated in FIG. 3, the initial assessment is whether or not a 0.5 wt % mixture of the material being tested is soluble in water. Mixtures were prepared by adding 0.5% of the material to distilled water at 20° C. and mixing with a magnetic stir bar for one hour. If the material is soluble in water, as indicated, for example, by the formation of a clear or slightly hazy mixture, then surface tension (σ) is determined. If σ is >45 mN/m, the material is not classified as a surfactant. If σ is ≤45 mN/m, and micelles are not present, the material is not classified as a surfactant. Conversely, if micelles are present, the material is classified as a surfactant. If the material is not soluble in water, and no emulsion is present (e.g. solid particles or gels are present instead), then the material is not classified as a surfactant. If an emulsion is present (e.g. droplets are present) and the emulsion in stable, then σ is determined. If σ is >45 mN/m, the material is not classified as a surfactant. Conversely, if σ is ≤45 mN/m, the material is classified as a surfactant. If the material is not soluble in water, and an emulsion is present (e.g. droplets are present) and the emulsion is not stable, the emulsion is then centrifuged. The (clear) main phase (or supernatant) of the emulsion is further studied and the a is determined. If σ is >45 mN/m, the material is not classified as a surfactant. Conversely, if σ is ≤45 mN/m, and micelles are not present, the material is not classified as a surfactant. […]

solubility in water: generally insoluble
stability of the mixture in water: stable
appearance / behaviour of the mixture in water (0.5 wt % mixture in water): formed a hazy mixture
classification as surfactant / non-surfactant according to the protocol/flow diagram (0.5 wt % of the material in distilled water at 20° C., mixed one hour): surfactant
SMILES: CN(CC(O)COCCC[Si](C)(O[Si](C)(C)C)O[Si](C)(C)C)C[C@H](O)[C@@H](O)[C@H](O)[C@H](O)CO (stereo partly shown) [Example 11, BisH-AGE-NMG]
